The values that follow come from patent US5972625A, “Assays for inhibitors of leukocyte adhesion” (The Regents of the University of California, priority 1997, dated 1999).

The term IC50 denotes the midpoint of a concentration-inhibition curve. A low value points to higher potency.

In assay [1] the target is L-selectin. The experiment in a line: Inhibition of L-selectin binding to GlyCAM-1 (ELISA with L-selectin-IgG chimera). Particulars: for Interaction of L-selectin with GlyCAM-1: FIG. 6, result in words. As to the method:
(§1) The CAMO2 antibody is diluted to a concentration of 1.6 μg/ml in PBS with 0.1% NaN3, and 100 μl of this solution is dispensed into each well of a 96-well plate. The plate is incubated overnight at 4° C. to allow adsorption of the antibody onto the solid support. The plate is then washed three times with PBS containing 0.1% tween, and blocked with 200 μl/well of a 3% solution of BSA in PBS for 2 hours at room temperature.
(§2) A crude GlyCAM-1 preparation is produced by extracting mouse serum with chloroform/methanol solution, followed by dialysis against PBS. After removing the blocking solution, 100 μl of this solution is dispensed into each well, and the plate is incubated for 1 hour at room temperature.
Chimeric molecules of the invention and more specifically, complexes of L-selectin with a secondary antibody and streptavidin-alkaline phosphates are formed as follows:
2 mg/ml L-selectin-IgG chimera
(§3) 2/1000 dilution of biotinylated goat anti-human Fc F(ab')2 (Caltag)
(§4) 2/1000 dilution of streptavidin-alkaline phosphatase (Caltag)
In PBS with 2% BSA and 5% normal rabbit serum
In a separate 96-well plate, 80 μl of serial dilutions of the test inhibitors dissolved in PBS are dispensed into each well. To each inhibitor-containing well is added 80 μl of the selectin-IgG/antibody/streptavidin-alkaline phosphatase complex solution. The plate is then incubated for 30 minutes at 4° C.
The plate containing CAMO2 antibody and captured GlyCAM-1 is washed three times with PBS/0.1% TWEEN detergent, and […] of each selectin complex/inhibitor mixture is transferred to the wells of the GlyCAM-containing plate. This plate is then incubated for 30 minutes at room temperature.
Finally, the solutions are removed from the GlyCAM-1 plate and the plate is washed three times with PBS/0.1% TWEEN detergent. […] of alkaline phosphatase substrate solution (p-nitrophenyl phosphate in ethanolamine/MgCl2) buffer is added to each well to detect the presence of bound selectin complex and the plate is quantified with a 96-well plate reader at 405 nm.
(ELISA stands for enzyme-linked immunosorbent assay.)

Another assay concerns the target P-selectin. Briefly: Inhibition of P-selectin binding to GlyCAM-1 (ELISA with P-selectin-IgG chimera). The procedure: as §1, §2
Chimeric molecules of the invention and more specifically, complexes of P-selection with a secondary antibody and streptavidin-alkaline phosphates are formed as follows:
4 μg/ml P-selectin-IgG chimera
as §3, §4
(§5) In PBS with 0.2% BSA and 5% normal rabbit serum
(§6) Assays as per Example 1-3 were used to determine IC50 's for the inhibition of L-, P- or E-selectin binding to GlyCAM-1 for a number of compounds.

Another assay deals with E-selectin. Briefly: Inhibition of E-selectin binding to GlyCAM-1 (ELISA with E-selectin-IgG chimera). As to the method: as §1, §2
Chimeric molecules of the invention and more specifically, complexes of E-selection with a secondary antibody and streptavidin-alkaline phosphates are formed as follows:
4 μg/ml E-selectin-IgG chimera
as §3, §4, §5, §6

The test system of assay [2] is lymphocyte attachment to HEV. The note with it: literature; cited from earlier work.
In assay [3] the target is T1, L-selectin (Homo sapiens, UniProt P14151).
T1 sequence (P14151 39-372): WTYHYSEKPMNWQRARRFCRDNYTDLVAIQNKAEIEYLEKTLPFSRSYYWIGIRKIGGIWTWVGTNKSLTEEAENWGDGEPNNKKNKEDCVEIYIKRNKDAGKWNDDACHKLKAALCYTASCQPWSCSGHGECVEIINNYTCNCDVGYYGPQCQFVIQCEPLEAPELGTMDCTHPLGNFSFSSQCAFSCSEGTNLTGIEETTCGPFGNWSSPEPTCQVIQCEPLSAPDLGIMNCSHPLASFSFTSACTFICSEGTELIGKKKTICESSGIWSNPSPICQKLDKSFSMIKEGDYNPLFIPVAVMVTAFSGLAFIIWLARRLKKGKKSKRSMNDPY
The note with it: without sulfate; cited from earlier work.

For assay [4], the system named is L-selectin, P-selectin and E-selectin. The experiment in a line: Binding of serum GlyCAM-1 to each of the different selectins. The note with it: Ig chimeras of the three selectins. From the text:
(See FIG. 5). […] These specific conditions are described in detail in Examples 1-3.

As for 3'-sulfo Lewis a, the half-inhibitory concentration (IC50) on L-selectin [1] (L-selectin) turned out to be 1700 µM; on P-selectin it was 140 µM; at E-selectin it was 4000 µM.
As to `O=S(=O)(O)OC[C@H]1O[C@@H](O[C@H]2[C@H](O)[C@@H](O)C(O)O[C@@H]2CO)[C@H](O)[C@@H](OS(=O)(=O)O)[C@H]1OS(=O)(=O)O` (stereo partly drawn) [3',4',6'-trisulfo lactose], the IC50 at L-selectin [1] (L-selectin) is 200 µM.
Still for that read-out and setting: with `O=S(=O)(O)OC[C@H]1O[C@@H](O[C@H]2[C@H](O)[C@@H](O)C(O)O[C@@H]2CO)[C@H](O)[C@@H](OS(=O)(=O)O)[C@H]1O` (stereo partly drawn) [3',6'-disulfo lactose] the figure was 400 µM.
Consider `CC(=O)N[C@H]1C(O)O[C@H](CO)[C@@H](O[C@@H]2O[C@H](CO)[C@H](O)[C@H](OS(=O)(=O)O)[C@H]2O)[C@@H]1O[C@@H]1O[C@@H](C)[C@@H](O)[C@@H](O)[C@@H]1O` (stereo partly drawn) [3'-sulfo Lewis x], for which the IC50 at L-selectin [1] (L-selectin) amounted to 3000 µM; on P-selectin it was 3000 µM; on E-selectin, 4000 µM.
At L-selectin [1] (L-selectin), `O=S(=O)(O)OC[C@H]1O[C@@H](O[C@H]2[C@H](O)[C@@H](O)C(O)O[C@@H]2CO)[C@H](O)[C@@H](O)[C@H]1O` (stereo partly drawn) [6'-sulfo lactose] came in with an IC50 of 10000 µM. This counts as millimolar.
Take `O=C(O)CN(CCN(CC(=O)O)CC(=O)O)CC(=O)O` [EDTA]: the “Interaction of L-selectin with GlyCAM-1” value in the assay on L-selectin [1] was “inhibited”.
Take `O=P(O)(O)OC[C@H]1OC(O)[C@@H](O)[C@@H](O)[C@@H]1O` (stereo partly drawn) [mannose-6-phosphate]: the “Interaction of L-selectin with GlyCAM-1” value in the assay with L-selectin [1] is “inhibited”. This molecule also yielded an IC50 at L-selectin [1] (L-selectin) of 1500 µM. For the same molecule, the “Lymphocyte attachment to HEV” value in assay [2] is given as “prevent lymphocyte attachment to HEV”.
Take `O=P(O)(O)O[C@H]1[C@H](OP(=O)(O)O)[C@@H](OP(=O)(O)O)[C@H](OP(=O)(O)O)[C@@H](OP(=O)(O)O)[C@H]1OP(=O)(O)O` [phytic acid]: the IC50 at L-selectin [1] (L-selectin) was determined as 2 µM; at P-selectin, 0.2 µM.
Turning to fucoidan, in the assay on L-selectin [1], the “Interaction of L-selectin with GlyCAM-1” value is given as “inhibited”. Further, on L-selectin [1] (L-selectin), the “IC50 for the inhibition of L-selectin binding to GlyCAM-1” value stood at 0.2 µg/mL. Moreover, the “IC50 for the inhibition of P-selectin binding to GlyCAM-1” value on P-selectin was determined as 0.02 µg/mL. In addition, the “Lymphocyte attachment to HEV” value in assay [2] is recorded as “active”.
Regarding sialyl Lewis^x oligosaccharide [sLe^x], on L-selectin [3], the “Affinity for L-selectin” value was “very low affinity”.

B1: GlyCAM-1: a sulfated, fucosylated and sialylated glycoprotein of about 50 kd now termed GlyCAM-1 (protein, UniProt Q02596 20-151, looked up)
Glycosylation-dependent cell …: LPGSKDELQMKTQPTDAIPAAQSTPTSYTSEESTSSKDLSKEPSIFREELISKDNVVIESTKPENQEAQDGLRSGSSQLEETTRPTTSAATTSEENLTKSSQTVEEELGKIIEGFVTGAEDIISGASRITKS
B1: in assay [4], the “Binding of serum GlyCAM-1 to the selectins” value is “will bind to each of the different selectins”.
